Laboratory results taken from article PMC7928206 (Toxicology in vitro : an international journal published in …, 2021).

Tests used:
[1] = biological target: T1, rat brain acetylcholinesterase (AChE) (Rattus norvegicus, UniProt P37136); format: biochemical; conditions: in brain and peripheral tissues
T1 sequence (P37136 32-614): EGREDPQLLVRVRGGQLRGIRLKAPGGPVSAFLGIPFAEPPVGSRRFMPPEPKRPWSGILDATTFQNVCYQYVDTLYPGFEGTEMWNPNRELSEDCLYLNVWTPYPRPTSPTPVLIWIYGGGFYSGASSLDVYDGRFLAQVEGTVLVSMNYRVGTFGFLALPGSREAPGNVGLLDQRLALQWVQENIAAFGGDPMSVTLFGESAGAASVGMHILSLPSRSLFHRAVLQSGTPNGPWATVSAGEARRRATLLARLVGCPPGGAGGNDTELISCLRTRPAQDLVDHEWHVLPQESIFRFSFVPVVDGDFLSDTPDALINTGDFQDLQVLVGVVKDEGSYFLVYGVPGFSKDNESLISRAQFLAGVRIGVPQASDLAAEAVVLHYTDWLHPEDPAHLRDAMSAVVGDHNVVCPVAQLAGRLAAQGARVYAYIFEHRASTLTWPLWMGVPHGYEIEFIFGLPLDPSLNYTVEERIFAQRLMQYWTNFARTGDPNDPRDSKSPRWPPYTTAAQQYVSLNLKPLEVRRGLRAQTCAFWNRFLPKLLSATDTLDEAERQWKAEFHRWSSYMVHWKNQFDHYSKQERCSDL

[2] = biological target: rat serum butyrylcholinesterase (BChE) (Rattus norvegicus, UniProt Q9JKC1); format: biochemical
[3] = Observed stability of the compound; conditions: also propensity to adhere to glass

rat serum butyrylcholinesterase (BChE), sequence (Q9JKC1 24-597): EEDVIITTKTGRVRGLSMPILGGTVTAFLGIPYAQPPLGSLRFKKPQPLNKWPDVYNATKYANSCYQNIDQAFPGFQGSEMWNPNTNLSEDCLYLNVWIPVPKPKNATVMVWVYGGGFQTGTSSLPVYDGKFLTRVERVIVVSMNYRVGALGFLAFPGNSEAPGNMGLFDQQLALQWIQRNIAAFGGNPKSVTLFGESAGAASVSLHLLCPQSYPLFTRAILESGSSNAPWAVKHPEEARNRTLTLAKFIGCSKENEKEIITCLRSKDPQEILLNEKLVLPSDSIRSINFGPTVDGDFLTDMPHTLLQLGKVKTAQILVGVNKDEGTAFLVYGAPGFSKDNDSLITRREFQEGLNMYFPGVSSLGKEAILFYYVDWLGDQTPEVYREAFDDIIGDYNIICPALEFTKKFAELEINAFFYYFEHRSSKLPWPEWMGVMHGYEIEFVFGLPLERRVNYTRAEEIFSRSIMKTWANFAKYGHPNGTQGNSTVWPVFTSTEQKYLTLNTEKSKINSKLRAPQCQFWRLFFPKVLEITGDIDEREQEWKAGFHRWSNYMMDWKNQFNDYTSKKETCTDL

CCOP(=O)(OCC)Oc1nc(Cl)c(Cl)cc1Cl [Chlorpyrifos-oxon]
fold more potent AChE inhibitor than ethyl-ronnel-oxon [1]: about 70 fold

COP(=O)(OC)SCn1nnc2ccccc2c1=O [Azinphos-methyl-oxon]
Serum BChE inhibition, result in words [2]: not good inhibitors of serum BChE

CCOP(=O)(OCC)Oc1cc(C)nc(C(C)C)n1 [Diazoxon]
stability, result in words [3]: particularly unstable
